From patent publication US6458398B1, “Cold water disinfection of foods” (Eco Pure Food Safety Systems, Inc., priority 1999, dated 2002)

Key:
[1] = tested on: bacterial spores (Bacillus subtilis v. globigii); conditions: within 1.5-2 minutes, water purged with 3% ozone by weight; cited from earlier work
Candida tropicalis = conditions: in 0.30 minutes, ozone-demand free water; cited from earlier work
[2] = tested on: Escherichia coli (ATCC number 25922); assay: cold water washing of raw cabbage inoculated with E. coli suspension; conditions: 25 g raw cabbage, 10 minutes, 21° C., pH 7.5 (ozone only) or 8.5 (with FIT 0.6 g/L)
[3] = tested on: human immunodeficiency virus ("HIV"); conditions: non-toxic concentration of 4 μg ozone per ml of serum; cited from earlier work
Naegleria gruberi = conditions: in 1.1 minutes, ozone-demand free phosphate buffer solution; cited from earlier work
Poliovirus type I = conditions: cited from earlier work
[4] = relative to chlorine; cited from earlier work
Escherichia coli = conditions: in 19 minutes, raw waste water; cited from earlier work

O=[O+][O-] [ozone]
log reduction of bacterial spores [1]: four | ozone concentration giving a 99% reduction (Candida tropicalis): 0.02 mg/L | decrease in E. coli relative to the control [2]: 93% | log reduction in the infectious titer [3]: six | ozone concentration giving a 99% reduction (Naegleria gruberi): 1.2 mg/L | ozone concentration giving a 99% reduction (Poliovirus type I): 0.2 mg/L | rate of disinfection, times faster than chlorine [4]: more than 3,000 times | ozone concentration giving a 99% reduction (Escherichia coli): 2.2 mg/L
